US20250230193A1, “CYCLIC COMPOUND HAVING SELECTIVE KRAS INHIBITORY EFFECT ON HRAS AND NRAS” (CHUGAI SEIYAKU KABUSHIKI KAISHA, priority 2022, published 2025)
*1 amine or outer side, *2 acyl side, *3 side chain or, on linkers, in order; H or OH if unused. Where a SMILES comes first, the peptide text is derived from it. Bridges are numbered along the chain shown (N, C = ends). [ ]: non-standard residue; d: D form. The star is where a group is joined. hPhe(3-Cl-4-CF3) = N[C@@H](CCc1ccc(C(F)(F)F)c(Cl)c1)C(=O)O; NPrPhe(4-CF3) = CCCN[C@@H](Cc1ccc(C(F)(F)F)cc1)C(=O)O; X10 = CCCN([C@@H](Cc1ccc(F)cc1)C(=O)[*:2])[*:1]; X44 = CCCN([C@@H](Cc1ccccc1)C(=O)[*:2])[*:1]; NEtPhe(4-F) = CCN[C@@H](Cc1ccc(F)cc1)C(=O)O; NMePhe(4-F) = CN[C@@H](Cc1ccc(F)cc1)C(=O)O; NMeGly(cPent) = CN[C@H](C(=O)O)C1CCCC1; Pro(4,4-F2) = O=C(O)[C@@H]1CC(F)(F)CN1; NEtPhe = CCN[C@@H](Cc1ccccc1)C(=O)O; NMeF = CN[C@@H](Cc1ccccc1)C(=O)O; NMeD = CN[C@@H](CC(=O)O)C(=O)O; NMeL = CN[C@@H](CC(C)C)C(=O)O; NMeAbu = CC[C@H](NC)C(=O)O; Morpholide = C1CN(*)CCO1; NMeA = CN[C@@H](C)C(=O)O; Ac5c = NC1(C(=O)O)CCCC1; Aze = O=C(O)[C@@H]1CCN1; Ac4c = NC1(C(=O)O)CCC1; Sar = CNCC(=O)O

Tests used:
[1] = molecular target: GDP-bound HRAS wild-type protein (Homo sapiens, UniProt P01112); experiment: Binding to HRAS by surface plasmon resonance (SPR), Single Cycle Kinetics; details: KD ratio HRAS/KRAS, SPR
Sequence of GDP-bound HRAS wild-type protein (P01112 whole entry): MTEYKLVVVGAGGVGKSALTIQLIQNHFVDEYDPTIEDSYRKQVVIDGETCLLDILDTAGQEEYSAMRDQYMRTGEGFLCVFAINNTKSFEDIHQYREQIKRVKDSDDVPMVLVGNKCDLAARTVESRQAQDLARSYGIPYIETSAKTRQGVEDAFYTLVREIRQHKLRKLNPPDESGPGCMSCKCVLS

[2] = molecular target: GDP-bound NRAS wild-type protein (Homo sapiens, UniProt P01111); experiment: Binding to NRAS by surface plasmon resonance (SPR), Single Cycle Kinetics; details: KD ratio NRAS/KRAS, SPR
Sequence of GDP-bound NRAS wild-type protein (P01111 whole entry): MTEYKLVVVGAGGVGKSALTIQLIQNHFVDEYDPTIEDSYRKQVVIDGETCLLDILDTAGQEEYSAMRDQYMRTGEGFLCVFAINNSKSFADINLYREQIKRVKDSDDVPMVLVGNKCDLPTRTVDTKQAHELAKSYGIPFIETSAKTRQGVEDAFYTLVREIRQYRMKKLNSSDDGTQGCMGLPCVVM

SMILES | HRAS/KRAS (ratio of KD for GDP-bound HRAS wild-type to KD for KRAS) [1] | NRAS/KRAS (ratio of KD for GDP-bound NRAS wild-type to KD for KRAS) [2]
CCCN1C(=O)[C@@H]2CCN2C(=O)[C@H](C)N(C)C(=O)[C@H]([C@@H](C)CC)NC(=O)[C@H](CC)N(C)C(=O)C[C@@H](C(=O)N2CCOCC2)N(C)C(=O)[C@H](C2CCCC2)N(C)C(=O)C2(CCCC2)NC(=O)[C@@H]2CC(F)(F)CN2C(=O)[C@H](CCc2ccc(C(F)(F)F)c(Cl)c2)NC(=O)CN(C)C(=O)[C@@H]1Cc1ccc(C(F)(F)F)cc1 [PP0206] ([NMeAbu]I[NMeA][Aze][NPrPhe(4-CF3)][Sar][hPhe(3-Cl-4-CF3)][Pro(4,4-F2)][Ac5c][NMeGly(cPent)][NMeD]-Morpholide; lactam N-11) | B (a compound having 3 or more and less than 10 is denoted as B) | C (A compound having a KD ratio of 0.1 or more and less than 3 is denoted as C)
CCCN1C(=O)CN(C)C(=O)CN(C)C(=O)[C@H]([C@@H](C)CC)NC(=O)[C@H](CC(C)C)N(C)C(=O)C[C@@H](C(=O)N2CCOCC2)N(C)C(=O)[C@H](C2CCCC2)N(C)C(=O)C2(CCC2)NC(=O)[C@@H]2CC(F)(F)CN2C(=O)[C@H](CCc2ccc(C(F)(F)F)c(Cl)c2)NC(=O)CN(C)C(=O)[C@@H]1Cc1ccc(C(F)(F)F)cc1 [PP0207] ([NMeL]I[Sar][Sar][NPrPhe(4-CF3)][Sar][hPhe(3-Cl-4-CF3)][Pro(4,4-F2)][Ac4c][NMeGly(cPent)][NMeD]-Morpholide; lactam N-11) | C (A compound having a KD ratio of 0.1 or more and less than 3 is denoted as C) | B (a compound having 3 or more and less than 10 is denoted as B)
CCCN1C(=O)[C@@H]2CCN2C(=O)[C@H](C)N(C)C(=O)[C@H]([C@@H](C)CC)NC(=O)[C@H](CC(C)C)N(C)C(=O)C[C@@H](C(=O)N2CCOCC2)N(C)C(=O)[C@H](C2CCCC2)N(C)C(=O)C2(CCC2)NC(=O)[C@@H]2CC(F)(F)CN2C(=O)[C@H](CCc2ccc(C(F)(F)F)c(Cl)c2)NC(=O)CN(C)C(=O)[C@@H]1Cc1ccc(C(F)(F)F)cc1 [PP0208] ([NMeL]I[NMeA][Aze][NPrPhe(4-CF3)][Sar][hPhe(3-Cl-4-CF3)][Pro(4,4-F2)][Ac4c][NMeGly(cPent)][NMeD]-Morpholide; lactam N-11) | C (A compound having a KD ratio of 0.1 or more and less than 3 is denoted as C) | C (A compound having a KD ratio of 0.1 or more and less than 3 is denoted as C)
CCCN1C(=O)[C@@H]2CCN2C(=O)[C@H](Cc2ccccc2)N(C)C(=O)[C@H]([C@@H](C)CC)NC(=O)[C@H](CC(C)C)N(C)C(=O)C[C@@H](C(=O)N2CCOCC2)N(C)C(=O)[C@H](C2CCCC2)N(C)C(=O)C2(CCCC2)NC(=O)[C@@H]2CCCN2C(=O)[C@H](CCc2ccc(C(F)(F)F)c(Cl)c2)NC(=O)CN(C)C(=O)[C@@H]1Cc1ccc(C(F)(F)F)cc1 [PP0209] ([NMeL]I[NMeF][Aze][NPrPhe(4-CF3)][Sar][hPhe(3-Cl-4-CF3)]P[Ac5c][NMeGly(cPent)][NMeD]-Morpholide; lactam N-11) | C (A compound having a KD ratio of 0.1 or more and less than 3 is denoted as C) | C (A compound having a KD ratio of 0.1 or more and less than 3 is denoted as C)
CC[C@H](C)[C@@H]1NC(=O)[C@H](CC(C)C)N(C)C(=O)C[C@@H](C(=O)N2CCOCC2)N(C)C(=O)[C@H](C2CCCC2)N(C)C(=O)C2(CCCC2)NC(=O)[C@@H]2CCCN2C(=O)[C@H](CCc2ccc(C(F)(F)F)c(Cl)c2)NC(=O)CN(C)C(=O)[C@H](Cc2ccccc2)N(CC)C(=O)CN(C)C(=O)CN(C)C1=O [PP0210] ([NMeL]I[Sar][Sar][NEtPhe][Sar][hPhe(3-Cl-4-CF3)]P[Ac5c][NMeGly(cPent)][NMeD]-Morpholide; lactam N-11) | C (A compound having a KD ratio of 0.1 or more and less than 3 is denoted as C) | C (A compound having a KD ratio of 0.1 or more and less than 3 is denoted as C)
CCCN1C(=O)CN(C)C(=O)CN(C)C(=O)[C@H]([C@@H](C)CC)NC(=O)[C@H](CC(C)C)N(C)C(=O)C[C@@H](C(=O)N2CCOCC2)N(C)C(=O)[C@H](C2CCCC2)N(C)C(=O)C2(CCCC2)NC(=O)[C@@H]2CCCN2C(=O)[C@H](CCc2ccc(C(F)(F)F)c(Cl)c2)NC(=O)CN(C)C(=O)[C@@H]1Cc1ccccc1 [PP0211] ([NMeL]I[Sar][Sar][X44][Sar][hPhe(3-Cl-4-CF3)]P[Ac5c][NMeGly(cPent)][NMeD]-Morpholide; lactam N-11) | C (A compound having a KD ratio of 0.1 or more and less than 3 is denoted as C) | B (a compound having 3 or more and less than 10 is denoted as B)
CC[C@H](C)[C@@H]1NC(=O)[C@H](CC(C)C)N(C)C(=O)C[C@@H](C(=O)N2CCOCC2)N(C)C(=O)[C@H](C2CCCC2)N(C)C(=O)C2(CCCC2)NC(=O)[C@@H]2CCCN2C(=O)[C@H](CCc2ccc(C(F)(F)F)c(Cl)c2)NC(=O)CN(C)C(=O)[C@H](Cc2ccc(F)cc2)N(C)C(=O)CN(C)C(=O)CN(C)C1=O [PP0212] ([NMeL]I[Sar][Sar][NMePhe(4-F)][Sar][hPhe(3-Cl-4-CF3)]P[Ac5c][NMeGly(cPent)][NMeD]-Morpholide; lactam N-11) | C (A compound having a KD ratio of 0.1 or more and less than 3 is denoted as C) | C (A compound having a KD ratio of 0.1 or more and less than 3 is denoted as C)
CC[C@H](C)[C@@H]1NC(=O)[C@H](CC(C)C)N(C)C(=O)C[C@@H](C(=O)N2CCOCC2)N(C)C(=O)[C@H](C2CCCC2)N(C)C(=O)C2(CCCC2)NC(=O)[C@@H]2CCCN2C(=O)[C@H](CCc2ccc(C(F)(F)F)c(Cl)c2)NC(=O)CN(C)C(=O)[C@H](Cc2ccc(F)cc2)N(CC)C(=O)CN(C)C(=O)CN(C)C1=O [PP0213] ([NMeL]I[Sar][Sar][NEtPhe(4-F)][Sar][hPhe(3-Cl-4-CF3)]P[Ac5c][NMeGly(cPent)][NMeD]-Morpholide; lactam N-11) | C (A compound having a KD ratio of 0.1 or more and less than 3 is denoted as C) | C (A compound having a KD ratio of 0.1 or more and less than 3 is denoted as C)
CCCN1C(=O)CN(C)C(=O)CN(C)C(=O)[C@H]([C@@H](C)CC)NC(=O)[C@H](CC(C)C)N(C)C(=O)C[C@@H](C(=O)N2CCOCC2)N(C)C(=O)[C@H](C2CCCC2)N(C)C(=O)C2(CCCC2)NC(=O)[C@@H]2CCCN2C(=O)[C@H](CCc2ccc(C(F)(F)F)c(Cl)c2)NC(=O)CN(C)C(=O)[C@@H]1Cc1ccc(F)cc1 [PP0214] ([NMeL]I[Sar][Sar][X10][Sar][hPhe(3-Cl-4-CF3)]P[Ac5c][NMeGly(cPent)][NMeD]-Morpholide; lactam N-11) | C (A compound having a KD ratio of 0.1 or more and less than 3 is denoted as C) | B (a compound having 3 or more and less than 10 is denoted as B)
CC[C@H](C)[C@@H]1NC(=O)[C@H](CC(C)C)N(C)C(=O)C[C@@H](C(=O)N2CCOCC2)N(C)C(=O)[C@H](C2CCCC2)N(C)C(=O)C2(CCCC2)NC(=O)[C@@H]2CCCN2C(=O)[C@H](CCc2ccc(C(F)(F)F)c(Cl)c2)NC(=O)CN(C)C(=O)[C@H](Cc2ccccc2)N(CC)C(=O)[C@@H]2CCN2C(=O)[C@H](C)N(C)C1=O [PP0215] ([NMeL]I[NMeA][Aze][NEtPhe][Sar][hPhe(3-Cl-4-CF3)]P[Ac5c][NMeGly(cPent)][NMeD]-Morpholide; lactam N-11) | C (A compound having a KD ratio of 0.1 or more and less than 3 is denoted as C) | C (A compound having a KD ratio of 0.1 or more and less than 3 is denoted as C)
CCCN1C(=O)[C@@H]2CCN2C(=O)[C@H](C)N(C)C(=O)[C@H]([C@@H](C)CC)NC(=O)[C@H](CC(C)C)N(C)C(=O)C[C@@H](C(=O)N2CCOCC2)N(C)C(=O)[C@H](C2CCCC2)N(C)C(=O)C2(CCCC2)NC(=O)[C@@H]2CCCN2C(=O)[C@H](CCc2ccc(C(F)(F)F)c(Cl)c2)NC(=O)CN(C)C(=O)[C@@H]1Cc1ccccc1 [PP0216] ([NMeL]I[NMeA][Aze][X44][Sar][hPhe(3-Cl-4-CF3)]P[Ac5c][NMeGly(cPent)][NMeD]-Morpholide; lactam N-11) | B (a compound having 3 or more and less than 10 is denoted as B) | C (A compound having a KD ratio of 0.1 or more and less than 3 is denoted as C)
CC[C@H](C)[C@@H]1NC(=O)[C@H](CC(C)C)N(C)C(=O)C[C@@H](C(=O)N2CCOCC2)N(C)C(=O)[C@H](C2CCCC2)N(C)C(=O)C2(CCCC2)NC(=O)[C@@H]2CCCN2C(=O)[C@H](CCc2ccc(C(F)(F)F)c(Cl)c2)NC(=O)CN(C)C(=O)[C@H](Cc2ccc(F)cc2)N(C)C(=O)[C@@H]2CCN2C(=O)[C@H](C)N(C)C1=O [PP0217] ([NMeL]I[NMeA][Aze][NMePhe(4-F)][Sar][hPhe(3-Cl-4-CF3)]P[Ac5c][NMeGly(cPent)][NMeD]-Morpholide; lactam N-11) | C (A compound having a KD ratio of 0.1 or more and less than 3 is denoted as C) | C (A compound having a KD ratio of 0.1 or more and less than 3 is denoted as C)
CC[C@H](C)[C@@H]1NC(=O)[C@H](CC(C)C)N(C)C(=O)C[C@@H](C(=O)N2CCOCC2)N(C)C(=O)[C@H](C2CCCC2)N(C)C(=O)C2(CCCC2)NC(=O)[C@@H]2CCCN2C(=O)[C@H](CCc2ccc(C(F)(F)F)c(Cl)c2)NC(=O)CN(C)C(=O)[C@H](Cc2ccc(F)cc2)N(CC)C(=O)[C@@H]2CCN2C(=O)[C@H](C)N(C)C1=O [PP0218] ([NMeL]I[NMeA][Aze][NEtPhe(4-F)][Sar][hPhe(3-Cl-4-CF3)]P[Ac5c][NMeGly(cPent)][NMeD]-Morpholide; lactam N-11) | C (A compound having a KD ratio of 0.1 or more and less than 3 is denoted as C) | C (A compound having a KD ratio of 0.1 or more and less than 3 is denoted as C)
